Experimental data published in US20080286335A1, “Enhancement Of The Calcium Sensing Receptor” (Smith & Nephew, Inc., priority 2007, published 2008).

How the values were obtained:
mouse calvarial cells [1] = assay: Von Kossa staining (mineralised matrix) of mouse calvarial cell monolayers; format: cell-based; settings: compared to 2.5 mM CaCl2 alone
Description: (§1) Osteoblastic cells were isolated from mouse calvarial tissue dissected from the heads of 2-3 day old freshly slaughtered mice pups using sequential enzymatic digestion. Cells were maintained in DMEM+10% Foetal Bovine Serum (FBS) at 37° C./5% CO2 in order to expand the cells before experimental use. Human dermal fibroblasts (HDFs) were used in experiments as an additional negative control.
Cells were seeded into 24 well plates at a concentration of 5×10^4 cells/well in αMEM+10% FBS (n=6). Experiments were set up to examine the amount of mineralisation at two different concentrations of calcium chloride (CaCl2) (1.8 mM and 2.5 mM) with and without L-amino acids (L-phenylalanine and L-tryptophan at 2.5 mM). Cells were cultured at 37° C./5% CO2 with media changes three times a week. […] Alizarin red stained monolayers were destained and the stain quantified spectophotometrically, whilst the Von Kossa staining was quantified using image analysis.

mouse calvarial cells [2] = assay: Alizarin red staining (calcium deposition) of mouse calvarial cell monolayers; format: cell-based; settings: 2.5 mM amino acid with 2.5 mM CaCl2, 2 week period, compared to 2.5 mM CaCl2 alone, FIG. 1 and 2
Description: as §1
Cells were seeded into 24 well plates at a concentration of 5×10^4 cells/well in αMEM+10% FBS (n=6). Experiments were set up to examine the amount of mineralisation at two different concentrations of calcium chloride (CaCl2) (1.8 mM and 2.5 mM) with and without L-amino acids (L-phenylalanine and L-tryptophan at 2.5 mM). Cells were cultured at 37° C./5% CO2 with media changes three times a week. After 2 weeks and 3 weeks, the monolayers were stained to show the extent of mineralisation using Alizarin red (calcium deposition) and after 4 weeks with Von Kossa (mineralised matrix). Alizarin red stained monolayers were destained and the stain quantified spectophotometrically, whilst the Von Kossa staining was quantified using image analysis.

Compound | amount of mineralised matrix (mouse calvarial cells [1]; 2.5 mM L-Phe with 2.5 mM CaCl2, 2 week period, Von Kossa image analysis, FIG. 4) | amount of mineralised matrix (mouse calvarial cells [1]; 2.5 mM L-Phe with 2.5 mM CaCl2, 4 week period, Von Kossa staining, FIG. 3) | calcium deposition (mouse calvarial cells [2])
N[C@@H](Cc1ccccc1)C(=O)O [L-Phe, L-phenylalanine] | significantly increases | significantly increases | significantly increases
N[C@@H](Cc1c[nH]c2ccccc12)C(=O)O [L-Trp, L-tryptophan] | – | – | significantly increases
